Data from the kinase profiling compilation of Christmann-Franck et al. (2016).

Key:
Assay in all cases: KINOMEscan competition binding
Conditions in all cases: compound 10.0 µM
[1] = biological target: IGF1R (human) (UniProt P08069)
[2] = biological target: DAPK2 (human) (UniProt Q9UIK4)
[3] = tested on: ABL1 (human), P00519 [Y253F]
[4] = biological target: PDGFRA (human) (UniProt P16234)
[5] = biological target: ERBB3 (human) (UniProt P21860)
[6] = biological target: YSK4 (human) (UniProt Q56UN5)
[7] = biological target: PAK4 (human) (UniProt O96013)
[8] = biological target: MAP2K4 (human) (UniProt P45985)
[9] = biological target: TNIK (human) (UniProt Q9UKE5)
[10] = biological target: CSNK1G1 (human) (UniProt Q9HCP0)
[11] = biological target: RIPK2 (human) (UniProt O43353)
[12] = biological target: FGFR4 (human) (UniProt P22455)
[13] = tested on: PIK3CA (human), P42336 [E545A]
[14] = biological target: STK38L (human) (UniProt Q9Y2H1)
[15] = biological target: PIK3C2G (human) (UniProt O75747)
[16] = biological target: MUSK (human) (UniProt O15146)
[17] = biological target: PRKACA (human) (UniProt P17612)
[18] = tested on: ABL1 (human), P00519 [Q252H]
[19] = biological target: IKBKE (human) (UniProt Q14164)
[20] = tested on: PIK3CA (human), P42336 [E545K]
[21] = biological target: MAPK15 (human) (UniProt Q8TD08)
[22] = biological target: CDK11B (human) (UniProt P21127)
[23] = biological target: MAP4K5 (human) (UniProt Q9Y4K4)
[24] = biological target: DDR1 (human) (UniProt Q08345)
[25] = biological target: PAK7 (human) (UniProt Q9P286)
[26] = biological target: SRPK1 (human) (UniProt Q96SB4)
[27] = biological target: CSF1R (human) (UniProt P07333)
[28] = biological target: CLK4 (human) (UniProt Q9HAZ1)
[29] = biological target: MAPK10 (human) (UniProt P53779)
[30] = biological target: MAPK13 (human) (UniProt O15264)
[31] = biological target: NEK7 (human) (UniProt Q8TDX7)
[32] = biological target: RPS6KA5 KD2 (human) (UniProt O75582)
[33] = biological target: STK16 (human) (UniProt O75716)
[34] = biological target: STK10 (human) (UniProt O94804)
[35] = biological target: CLK3 (human) (UniProt P49761)
[36] = biological target: ERBB2 (human) (UniProt P04626)
[37] = biological target: ACVR1 (human) (UniProt Q04771)
[38] = biological target: DCLK1 (human) (UniProt O15075)
[39] = biological target: MAP3K6 (human) (UniProt O95382)
[40] = biological target: ROCK1 (human) (UniProt Q13464)
[41] = biological target: PTK2 (human) (UniProt Q05397)

TNIK (human), sequence (Q9UKE5 whole entry, looked up): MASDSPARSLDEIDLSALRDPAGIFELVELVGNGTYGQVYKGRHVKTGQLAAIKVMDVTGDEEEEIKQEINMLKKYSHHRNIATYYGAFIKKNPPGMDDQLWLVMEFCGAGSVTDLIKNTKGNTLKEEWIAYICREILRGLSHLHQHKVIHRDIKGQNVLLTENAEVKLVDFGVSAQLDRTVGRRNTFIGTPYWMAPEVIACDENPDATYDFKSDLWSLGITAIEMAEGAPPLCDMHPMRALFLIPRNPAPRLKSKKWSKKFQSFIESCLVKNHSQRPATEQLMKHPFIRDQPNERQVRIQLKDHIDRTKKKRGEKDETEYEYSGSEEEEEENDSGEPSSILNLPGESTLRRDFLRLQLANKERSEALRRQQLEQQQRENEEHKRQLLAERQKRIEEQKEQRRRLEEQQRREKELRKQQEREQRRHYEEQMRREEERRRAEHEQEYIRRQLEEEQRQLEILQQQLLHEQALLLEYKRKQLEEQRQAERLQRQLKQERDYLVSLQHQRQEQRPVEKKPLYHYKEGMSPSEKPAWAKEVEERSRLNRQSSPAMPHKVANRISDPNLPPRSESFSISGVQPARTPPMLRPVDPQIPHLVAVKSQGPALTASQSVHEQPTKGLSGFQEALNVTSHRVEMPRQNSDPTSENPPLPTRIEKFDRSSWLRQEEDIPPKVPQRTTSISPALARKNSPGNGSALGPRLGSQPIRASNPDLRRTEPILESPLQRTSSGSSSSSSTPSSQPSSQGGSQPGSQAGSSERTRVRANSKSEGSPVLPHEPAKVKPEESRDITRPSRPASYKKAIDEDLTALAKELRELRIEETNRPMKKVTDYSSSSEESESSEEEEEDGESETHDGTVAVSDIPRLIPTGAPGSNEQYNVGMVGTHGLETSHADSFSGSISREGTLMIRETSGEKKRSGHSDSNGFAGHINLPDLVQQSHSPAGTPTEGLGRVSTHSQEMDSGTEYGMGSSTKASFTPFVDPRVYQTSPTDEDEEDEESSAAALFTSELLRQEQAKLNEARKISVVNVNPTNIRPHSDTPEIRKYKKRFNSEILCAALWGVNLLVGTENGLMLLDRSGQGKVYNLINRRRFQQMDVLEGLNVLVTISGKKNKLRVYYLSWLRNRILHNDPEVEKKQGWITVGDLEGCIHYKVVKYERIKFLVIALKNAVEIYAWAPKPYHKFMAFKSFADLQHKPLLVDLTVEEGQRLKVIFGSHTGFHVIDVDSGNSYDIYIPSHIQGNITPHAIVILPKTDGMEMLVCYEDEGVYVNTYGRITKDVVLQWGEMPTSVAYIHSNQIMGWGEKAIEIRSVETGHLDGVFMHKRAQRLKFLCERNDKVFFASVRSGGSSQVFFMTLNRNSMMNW
CSNK1G1 (human), sequence (Q9HCP0 whole entry, looked up): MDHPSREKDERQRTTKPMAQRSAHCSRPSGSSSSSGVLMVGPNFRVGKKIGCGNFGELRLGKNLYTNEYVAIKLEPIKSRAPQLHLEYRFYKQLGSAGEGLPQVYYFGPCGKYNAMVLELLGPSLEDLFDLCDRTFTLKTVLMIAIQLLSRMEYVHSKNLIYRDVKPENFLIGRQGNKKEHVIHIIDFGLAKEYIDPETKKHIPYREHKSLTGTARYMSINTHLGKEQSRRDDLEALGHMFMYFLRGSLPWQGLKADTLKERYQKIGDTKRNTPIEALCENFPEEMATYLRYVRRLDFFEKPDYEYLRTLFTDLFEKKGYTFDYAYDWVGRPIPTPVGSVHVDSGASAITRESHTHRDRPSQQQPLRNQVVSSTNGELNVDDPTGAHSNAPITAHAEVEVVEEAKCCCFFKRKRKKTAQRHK
RIPK2 (human), sequence (O43353 whole entry, looked up): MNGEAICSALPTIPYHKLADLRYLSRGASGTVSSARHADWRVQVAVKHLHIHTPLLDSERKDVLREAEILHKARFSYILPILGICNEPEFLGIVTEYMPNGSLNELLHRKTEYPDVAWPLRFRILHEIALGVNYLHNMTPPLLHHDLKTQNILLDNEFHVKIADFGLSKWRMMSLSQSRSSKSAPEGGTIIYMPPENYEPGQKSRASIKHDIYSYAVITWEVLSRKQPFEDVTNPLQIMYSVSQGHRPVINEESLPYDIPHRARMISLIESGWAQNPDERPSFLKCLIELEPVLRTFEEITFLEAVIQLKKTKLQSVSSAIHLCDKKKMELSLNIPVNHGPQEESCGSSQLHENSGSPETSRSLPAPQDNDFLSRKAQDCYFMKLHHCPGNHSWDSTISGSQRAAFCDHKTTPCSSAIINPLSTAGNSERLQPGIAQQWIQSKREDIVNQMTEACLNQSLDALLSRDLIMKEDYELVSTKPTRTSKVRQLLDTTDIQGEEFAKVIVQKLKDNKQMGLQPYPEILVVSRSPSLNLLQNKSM
RPS6KA5 KD2 (human), sequence (O75582 whole entry, looked up): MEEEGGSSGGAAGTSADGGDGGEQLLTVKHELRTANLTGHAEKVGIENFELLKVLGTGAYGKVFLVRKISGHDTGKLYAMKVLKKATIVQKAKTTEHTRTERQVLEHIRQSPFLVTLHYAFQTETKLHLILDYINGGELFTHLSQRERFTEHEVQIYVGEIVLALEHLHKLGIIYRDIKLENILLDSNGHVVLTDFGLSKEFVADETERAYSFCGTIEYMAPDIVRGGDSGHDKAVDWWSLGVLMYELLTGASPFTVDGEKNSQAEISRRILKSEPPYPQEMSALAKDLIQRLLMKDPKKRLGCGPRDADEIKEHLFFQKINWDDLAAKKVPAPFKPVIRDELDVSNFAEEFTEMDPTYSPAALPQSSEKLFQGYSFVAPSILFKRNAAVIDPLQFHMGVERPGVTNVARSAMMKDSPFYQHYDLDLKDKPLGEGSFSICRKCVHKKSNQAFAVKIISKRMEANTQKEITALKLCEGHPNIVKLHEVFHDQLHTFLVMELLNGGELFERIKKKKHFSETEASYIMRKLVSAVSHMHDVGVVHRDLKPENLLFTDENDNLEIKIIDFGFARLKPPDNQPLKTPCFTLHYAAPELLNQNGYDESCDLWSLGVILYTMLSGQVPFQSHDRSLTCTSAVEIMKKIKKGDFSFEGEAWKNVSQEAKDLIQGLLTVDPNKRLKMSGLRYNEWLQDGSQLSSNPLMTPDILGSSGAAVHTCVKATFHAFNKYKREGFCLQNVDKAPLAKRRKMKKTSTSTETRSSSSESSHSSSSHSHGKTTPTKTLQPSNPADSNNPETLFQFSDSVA
MAP2K4 (human), sequence (P45985 whole entry, looked up): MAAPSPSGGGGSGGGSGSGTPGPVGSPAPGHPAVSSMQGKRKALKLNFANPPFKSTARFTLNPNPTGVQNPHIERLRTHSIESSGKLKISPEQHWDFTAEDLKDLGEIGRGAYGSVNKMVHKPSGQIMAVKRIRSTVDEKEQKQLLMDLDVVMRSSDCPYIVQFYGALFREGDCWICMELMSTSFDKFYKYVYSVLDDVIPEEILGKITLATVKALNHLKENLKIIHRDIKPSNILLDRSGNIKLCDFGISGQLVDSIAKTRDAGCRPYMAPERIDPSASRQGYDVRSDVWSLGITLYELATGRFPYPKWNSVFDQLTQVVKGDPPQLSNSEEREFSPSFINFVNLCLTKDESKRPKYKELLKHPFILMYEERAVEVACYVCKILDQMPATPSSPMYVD
DCLK1 (human), sequence (O15075 whole entry, looked up): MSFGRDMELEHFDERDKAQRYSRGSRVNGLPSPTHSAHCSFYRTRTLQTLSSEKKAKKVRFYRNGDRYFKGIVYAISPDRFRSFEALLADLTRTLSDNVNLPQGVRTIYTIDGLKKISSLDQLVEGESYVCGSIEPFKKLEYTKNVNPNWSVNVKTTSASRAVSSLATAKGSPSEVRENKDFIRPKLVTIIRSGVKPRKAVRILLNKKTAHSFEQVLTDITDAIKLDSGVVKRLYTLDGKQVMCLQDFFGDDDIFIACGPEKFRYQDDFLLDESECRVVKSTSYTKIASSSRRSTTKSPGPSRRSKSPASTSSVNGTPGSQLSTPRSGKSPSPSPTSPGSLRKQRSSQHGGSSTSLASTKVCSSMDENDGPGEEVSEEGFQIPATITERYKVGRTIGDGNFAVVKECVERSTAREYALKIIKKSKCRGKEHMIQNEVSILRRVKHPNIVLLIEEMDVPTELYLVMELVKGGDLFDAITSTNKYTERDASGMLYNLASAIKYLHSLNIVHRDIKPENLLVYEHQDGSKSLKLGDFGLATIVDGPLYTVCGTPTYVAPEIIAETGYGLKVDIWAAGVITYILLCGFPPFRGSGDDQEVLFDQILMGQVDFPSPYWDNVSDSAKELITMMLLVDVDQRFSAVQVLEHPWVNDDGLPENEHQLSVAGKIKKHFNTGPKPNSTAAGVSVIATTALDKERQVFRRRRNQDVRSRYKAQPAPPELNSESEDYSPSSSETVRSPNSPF
STK16 (human), sequence (O75716 whole entry, looked up): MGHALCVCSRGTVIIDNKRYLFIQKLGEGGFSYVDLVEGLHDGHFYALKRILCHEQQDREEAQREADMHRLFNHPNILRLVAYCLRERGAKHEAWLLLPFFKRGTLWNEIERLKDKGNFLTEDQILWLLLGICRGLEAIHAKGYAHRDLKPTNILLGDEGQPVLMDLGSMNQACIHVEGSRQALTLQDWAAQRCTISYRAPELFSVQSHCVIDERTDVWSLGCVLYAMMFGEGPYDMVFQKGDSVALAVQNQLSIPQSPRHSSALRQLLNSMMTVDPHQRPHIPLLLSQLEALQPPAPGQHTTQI
STK38L (human), sequence (Q9Y2H1 whole entry, looked up): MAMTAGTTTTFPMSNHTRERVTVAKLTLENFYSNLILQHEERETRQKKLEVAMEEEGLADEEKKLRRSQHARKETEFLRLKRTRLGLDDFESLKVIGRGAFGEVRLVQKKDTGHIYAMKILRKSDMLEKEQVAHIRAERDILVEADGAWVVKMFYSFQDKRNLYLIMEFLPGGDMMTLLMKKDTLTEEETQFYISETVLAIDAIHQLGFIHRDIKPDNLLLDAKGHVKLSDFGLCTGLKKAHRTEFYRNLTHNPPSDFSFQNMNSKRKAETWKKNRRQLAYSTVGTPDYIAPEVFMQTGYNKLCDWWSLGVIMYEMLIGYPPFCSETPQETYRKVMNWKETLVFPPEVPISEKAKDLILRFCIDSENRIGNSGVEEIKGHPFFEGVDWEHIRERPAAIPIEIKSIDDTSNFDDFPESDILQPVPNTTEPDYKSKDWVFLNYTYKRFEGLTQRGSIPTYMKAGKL

Molecule Cc1cnc(-c2cnc(NCCNc3ccc(C#N)cn3)nc2-c2ccc(Cl)cc2Cl)[nH]1 has a kinase still bound, per cent of control [1] of 100%, a kinase still bound, per cent of control [2] of 94% and a kinase still bound, per cent of control [3] of 100%. For the same molecule, the kinase still bound, per cent of control [4] was 100%, the kinase still bound, per cent of control [5] was 73% and the kinase still bound, per cent of control [6] was 30%. It also gave a kinase still bound, per cent of control [7] of 100%, a kinase still bound, per cent of control [8] of 70% and a kinase still bound, per cent of control [9] of 96%. It also gave a kinase still bound, per cent of control [10] of 49%, a kinase still bound, per cent of control [11] of 100% and a kinase still bound, per cent of control [12] of 100%. The kinase still bound, per cent of control [13] was 100%, the kinase still bound, per cent of control [14] was 100% and the kinase still bound, per cent of control [15] was 100%. For the same molecule, the kinase still bound, per cent of control [16] was 100%, the kinase still bound, per cent of control [17] was 100% and the kinase still bound, per cent of control [18] was 100%. It also gave a kinase still bound, per cent of control [19] of 98%, a kinase still bound, per cent of control [20] of 100% and a kinase still bound, per cent of control [21] of 68%. It also gave a kinase still bound, per cent of control [22] of 100%, a kinase still bound, per cent of control [23] of 100% and a kinase still bound, per cent of control [24] of 100%. The kinase still bound, per cent of control [25] was 100%, the kinase still bound, per cent of control [26] was 100% and the kinase still bound, per cent of control [27] was 90%. The kinase still bound, per cent of control [28] was 62%, the kinase still bound, per cent of control [29] was 64% and the kinase still bound, per cent of control [30] was 100%. It also gave a kinase still bound, per cent of control [31] of 98%, a kinase still bound, per cent of control [32] of 100% and a kinase still bound, per cent of control [33] of 91%. For the same molecule, the kinase still bound, per cent of control [34] was 100%, the kinase still bound, per cent of control [35] was 97% and the kinase still bound, per cent of control [36] was 100%. The kinase still bound, per cent of control [37] was 100%, the kinase still bound, per cent of control [38] was 100% and the kinase still bound, per cent of control [39] was 80%. It also gave a kinase still bound, per cent of control [40] of 85% and a kinase still bound, per cent of control [41] of 96%.

In the case of COc1ccc(CNC(=O)Nc2ncc([N+](=O)[O-])s2)cc1, the kinase still bound, per cent of control [1] is reported as 100%, the kinase still bound, per cent of control [2] is reported as 93% and the kinase still bound, per cent of control [3] is reported as 100%. It also gave a kinase still bound, per cent of control [4] of 100%, a kinase still bound, per cent of control [5] of 73% and a kinase still bound, per cent of control [6] of 49%. The kinase still bound, per cent of control [7] was 74%, the kinase still bound, per cent of control [8] was 79% and the kinase still bound, per cent of control [9] was 100%. For the same molecule, the kinase still bound, per cent of control [10] was 66%, the kinase still bound, per cent of control [11] was 95% and the kinase still bound, per cent of control [12] was 100%. The kinase still bound, per cent of control [13] was 94%, the kinase still bound, per cent of control [14] was 100% and the kinase still bound, per cent of control [15] was 100%. For the same molecule, the kinase still bound, per cent of control [16] was 100%, the kinase still bound, per cent of control [17] was 96% and the kinase still bound, per cent of control [18] was 100%. For the same molecule, the kinase still bound, per cent of control [19] was 88%, the kinase still bound, per cent of control [20] was 100% and the kinase still bound, per cent of control [21] was 51%. It also gave a kinase still bound, per cent of control [22] of 100%, a kinase still bound, per cent of control [23] of 100% and a kinase still bound, per cent of control [24] of 100%. The kinase still bound, per cent of control [25] was 96%, the kinase still bound, per cent of control [26] was 100% and the kinase still bound, per cent of control [27] was 97%. The kinase still bound, per cent of control [28] was 87%, the kinase still bound, per cent of control [29] was 53% and the kinase still bound, per cent of control [30] was 94%. For the same molecule, the kinase still bound, per cent of control [31] was 100%, the kinase still bound, per cent of control [32] was 100% and the kinase still bound, per cent of control [33] was 28%. It also gave a kinase still bound, per cent of control [34] of 100%, a kinase still bound, per cent of control [36] of 95% and a kinase still bound, per cent of control [37] of 98%. The kinase still bound, per cent of control [38] was 100%, the kinase still bound, per cent of control [39] was 85% and the kinase still bound, per cent of control [40] was 61%. The kinase still bound, per cent of control [41] was 91%.
